Values of other authors as cited in patent US9301985B2, “Therapeutic agent for dementia” (Kibun Foods Inc., priority 2013, dated 2016).

How the values were obtained:
[1] = system: cerebrovascular dementia model and Alzheimer's disease model; conditions: rat; cerebrovascular dementia model (vessel artificially clogged) and Alzheimer's disease model
[2] = system: nerve growth factor (NGF); conditions: erinacine E derived from Hericium erinaceum
[3] = target: k-opioid receptor (Homo sapiens, UniProt P41145); conditions: erinacine E derived from Hericium ramosum
Sequence of k-opioid receptor (P41145 whole entry): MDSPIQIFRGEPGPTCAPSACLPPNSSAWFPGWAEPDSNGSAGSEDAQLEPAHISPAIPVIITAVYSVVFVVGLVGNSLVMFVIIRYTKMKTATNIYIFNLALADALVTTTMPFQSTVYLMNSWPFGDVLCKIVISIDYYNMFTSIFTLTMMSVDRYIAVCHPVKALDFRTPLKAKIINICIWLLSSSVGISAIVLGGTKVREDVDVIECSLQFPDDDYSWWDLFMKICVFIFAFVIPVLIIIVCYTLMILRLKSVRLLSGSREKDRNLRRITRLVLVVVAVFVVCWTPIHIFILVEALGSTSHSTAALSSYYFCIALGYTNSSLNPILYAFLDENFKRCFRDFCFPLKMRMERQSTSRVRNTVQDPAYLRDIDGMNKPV

Row | Compound | memory retention and learning ability [1] | nerve growth factor (NGF) production [2] | activity at k-opioid receptor [3]
1 | CC(C)C1=C2C3=CC=C(C=O)C[C@H](O[C@@H]4OC[C@@H](O)[C@H](O)[C@H]4O)[C@]3(C)CC[C@@]2(C)CC1 [erinacine A] | apparent improvement | – | –
2 | CC(C)C1=C2C3CC=C4C(O)C5(O)COC6OC(C4C6(O)C5O)C3(C)CCC2(C)CC1 (stereo not shown) [erinacine E] | – | action to accelerate | agonist
3 | CCCCCCCCCCCCCCCC(=O)OCc1cc(OC)c(C/C=C(\C)CC(=O)C=C(C)C)c(O)c1C=O [hericenone C] | apparent improvement | – | –
